Read-outs that look alike come from different tables or passages of the source.
Legend:
[1] = test system: Organic anion transporters (OATs); experiment: In vivo microdialysis pharmacokinetics of LVFX with OATs inhibitor probenecid; parameters: species or system rat; details: for MRT / half-life / Tmax / AUC(0-inf) / Cmax / AUC(0-t) / Kp: rat, intravenous, with Probenecid 50 mg/kg i.p., PRO group, Probenecid 50 mg/kg i.p. + LVFX 50 mg/kg, N=5; for MRT / half-life / AUC(0-inf) / Cmax / AUC(0-t): mean ± SD; for AUC(0-t): read-out: AUC0–180 (converted)
Procedure: (§1) On the day of surgery, rats were anesthetized using inhaled isoflurane via a facemask. The rats were placed in a stereotaxic frame (Gene&I), and the body temperature was maintained with a homoeothermic blanket set at 37°C. A midline incision was made to expose the skull. According to the Paxinos and Watson atlas, two microdialysis intracerebral guide cannulae (Eicom Co.) were implanted into the hippocampus CA1 region (Hp‐CA1 coordinates: AP −4.16 mm; ML −2.2 mm; DV −2.9 mm) and lateral ventricle (LV coordinates: AP −1.4 mm; ML +2.2 mm; DV −3.4 mm). Fixed to the skull using a screw and dental cement. After 3 days of recovery, the rats were anesthetized with isoflurane again. An intravascular probe (TP‐100‐20; 20 mm, Eicom Co.) was implanted into the jugular vein toward the right atrium. After the blood microdialysis probe was positioned within the jugular vein, the pipeline was connected to perfuse with ACD solution (citric acid 3.5 mM; sodium citrate 7.5 mM; dextrose 13.6 mM) at a flow rate of […], and the Hamilton microinjection pump was used for continuous perfusion. After stopping isoflurane inhalation, the rats were allowed to wake up naturally on the homoeothermic blanket. The awake rats were placed in a device that allowed them to move freely. Animals were allowed to recover for an additional 24 h.
(§2) All microdialysate concentrations (C m) from the hippocampal ECF and lateral ventricle CSF were converted to the unbound drug concentration (C u) at the target site using the following formula: C u = C m/R dial.
(§3) A total of 32 rats were randomly divided into the following groups: • Control group, N = 12: vehicle solution + LVFX (50 mg/kg). • TAR group, N = 5: Tariquidar (8 mg/kg) + LVFX (50 mg/kg). • Ko143 group, N = 5: Ko143 (15 mg/kg) + LVFX (50 mg/kg). • MK571 group, N = 5: MK571 (20 mg/kg) + LVFX (50 mg/kg). • PRO group, N = 5: Probenecid (50 mg/kg) + LVFX (50 mg/kg).
(§4) Levofloxacin was freshly dissolved in isotonic saline and administered via tail vein injection. Thirty minutes before LVFX administration, the intervention drugs of each group were injected intraperitoneally. To reduce the possible effect of solvents on BBB or BCSFB permeability of LVFX, we prioritized water as the solvent. However, Tariquidar and Ko143 are insoluble in water, and a cosolvent must be used to prepare agents that animals can tolerate. According to the different physicochemical properties of these four inhibitors, the preparation of each transporter inhibitor solution in this experiment was as follows. • P‐glycoprotein (P‐gp) inhibitor Tariquidar[22]: Tariquidar was freshly dissolved in DMSO to 8 mg/ml and then diluted to 4 mg/ml with a solution containing 10% Tween‐80, 25% PEG300, and 65% sterile water. • Breast cancer resistance protein (BCRP) inhibitor Ko143[23]: Ko143 was freshly dissolved in DMSO to 15 mg/ml and then diluted to 7.5 mg/ml with a solution containing 10% Tween‐80, 25% PEG300, and 65% sterile water. • Multidrug resistance‐associated proteins (MRPs) inhibitor MK571[24]: MK571 sodium salt hydrate was dissolved in 1.25% (w/v) aq sodium hydrogen carbonate (NaHCO3) solution to obtain a concentration of 10 mg/ml. • Organic anion transporters (OATs) inhibitor probenecid[25]: Probenecid was dissolved in NaOH (pH = 9.0–9.2) alkalized physiological saline to obtain a concentration of 25 mg/ml.
(§5) The pipelines where the blood and brain probes were installed were perfused at the speed of 2 μl/min with ACD solution and ACSF, respectively. Two brain probes were inserted into guide cannulas of the target site and allowed to equilibrate for 1 h. Subsequently, the rats were treated according to their corresponding groups in the device where they could move freely. Microdialyses samples were collected every 15 min using a fraction collector (EFC‐96, Eicom Co.) for 3 h and stored at 4°C until analysis. Finally, rats were anesthetized and decapitated, and their brain was harvested.

[2] = test system: Multidrug resistance-associated proteins (MRPs); experiment: In vivo microdialysis pharmacokinetics of LVFX with MRPs inhibitor MK571; parameters: species or system rat; details: for increase of AUC0–180 / increase of C max: treatment with MK571 vs control group; for Kp / MRT / half-life / Tmax / AUC(0-inf) / Cmax / AUC(0-t): rat, intravenous; for Kp: with MK571 20 mg/kg intraperitoneally; for MRT / half-life / Tmax / AUC(0-inf) / Cmax / AUC(0-t): with MK571 20 mg/kg i.p.; for MRT / half-life / AUC(0-inf) / Cmax / AUC(0-t): mean ± SD; for AUC(0-t): read-out: AUC0–180 (converted)
Procedure: as §1, §2, §3, §4, §5

[3] = blood, PRO group (probenecid 50 mg/kg) vs control group
[4] = CSF (lateral ventricle microdialysate, unbound), 30 min before LVFX, CSF
[5] = CSF (lateral ventricle microdialysate, unbound), CSF
[6] = brain ECF (hippocampal microdialysate, unbound), 30 min before LVFX, brain ECF
[7] = MK571 intervention vs control group
[8] = CSF (lateral ventricle microdialysate, unbound), 30 min before LVFX, CSF, MK571 group, MK571 20 mg/kg i.p. + LVFX 50 mg/kg, N=5
[9] = CSF (lateral ventricle microdialysate, unbound), CSF, MK571 group, MK571 20 mg/kg i.p. + LVFX 50 mg/kg, N=5
[10] = brain ECF (hippocampal microdialysate, unbound), 30 min before LVFX, brain ECF, MK571 group, MK571 20 mg/kg i.p. + LVFX 50 mg/kg, N=5
[11] = 30 min before LVFX, blood, MK571 group, MK571 20 mg/kg i.p. + LVFX 50 mg/kg, N=5

AUC0–180 higher than control group [1, 3]: 128.6%
AUC0–∞ higher than control group [1, 3]: 143.0%
C max greater than control group [1, 3]: 71.2%
MRT longer than control group [1, 3]: 1.29 times
t 1/2 longer than control group [1, 3]: 1.28 times
MRT [1, 4]: 87.9 min
half-life [1, 4]: 57.5 ± 7.55 min
Tmax [1, 5]: 15 min
AUC(0-inf) [1, 5]: 9510 ng·h/mL
Cmax [1, 5]: 6800 ± 240 ng/mL
AUC(0-t) [1, 5]: 8330 ng·h/mL
Kp ([1]; CSF / blood (unbound, microdialysate), 30 min before LVFX, AUCu,CSF/AUCu,blood, read-out: K p,uu,CSF): 0.359 ± 0.008
Tmax [1, 6]: 15 min
AUC(0-inf) [1, 6]: 9220 ng·h/mL
Cmax [1, 6]: 5850 ± 180 ng/mL
half-life [1, 6]: 67 ± 16.8 min
AUC(0-t) [1, 6]: 7830 ng·h/mL
Kp ([1]; brain ECF / blood, 30 min before LVFX, AUCu,ECF/AUCu,blood, read-out: K p,uu,ECF): 0.337 ± 0.012
Tmax ([1]; 30 min before LVFX, blood): 15 min
AUC(0-inf) ([1]; 30 min before LVFX, blood): 27000 ng·h/mL
Cmax ([1]; 30 min before LVFX, blood): 17500 ± 600 ng/mL
MRT ([1]; 30 min before LVFX, blood): 94.9 min
half-life ([1]; 30 min before LVFX, blood): 63.1 ± 9.61 min
AUC(0-t) ([1]; 30 min before LVFX, blood): 23200 ng·h/mL
MRT ([1]; 30 min before LVFX, brain ECF): 96.5 min
K p,uu,CSF ([2]; AUCu,CSF/AUCu,blood, MK571 group, MK571 20 mg/kg i.p. + LVFX 50 mg/kg, N=5): 47.9 ± 2.4 %
K p,uu,ECF ([2]; AUCu,ECF/AUCu,blood, MK571 group, MK571 20 mg/kg i.p. + LVFX 50 mg/kg, N=5): 46.0 ± 1.5 %
increase of AUC0–180 ([2]; CSF): 1.26 fold
increase of C max ([2]; CSF): 1.50 fold
increase in K p,uu,CSF [2, 7]: 1.16 fold
increase in K p,uu,ECF [2, 7]: 1.35 fold
increase of AUC0–180 ([2]; brain ECF): 1.47 fold
increase of C max ([2]; brain ECF): 1.55 fold
Kp ([2]; CSF (lateral ventricle microdialysate) relative to blood, 30 min before LVFX, AUCu,CSF/AUCu,blood, MK571 group, MK571 20 mg/kg i.p. + LVFX 50 mg/kg, N=5, read-out: K p,uu,CSF): 0.479 ± 0.024
MRT [2, 8]: 75.8 min
half-life [2, 8]: 54.9 ± 7.43 min
Tmax [2, 9]: 15 min
AUC(0-inf) [2, 9]: 5860 ng·h/mL
Cmax [2, 9]: 5460 ± 190 ng/mL
AUC(0-t) [2, 9]: 5290 ng·h/mL
Kp ([2]; brain ECF (hippocampal microdialysate) relative to blood, 30 min before LVFX, AUCu,ECF/AUCu,blood, MK571 group, MK571 20 mg/kg i.p. + LVFX 50 mg/kg, N=5, read-out: K p,uu,ECF): 0.46 ± 0.015
Tmax [2, 10]: 15 min
AUC(0-inf) [2, 10]: 5630 ng·h/mL
Cmax [2, 10]: 4210 ± 350 ng/mL
MRT [2, 10]: 80.9 min
half-life [2, 10]: 49 ± 15.1 min
AUC(0-t) [2, 10]: 5080 ng·h/mL
Tmax [2, 11]: 15 min
AUC(0-inf) [2, 11]: 11700 ng·h/mL
Cmax [2, 11]: 10100 ± 310 ng/mL
MRT [2, 11]: 69.7 min
half-life [2, 11]: 39.5 ± 4.79 min
AUC(0-t) [2, 11]: 11000 ng·h/mL
Compound: C[C@H]1COc2c(N3CCN(C)CC3)c(F)cc3c(=O)c(C(=O)O)cn1c23 [LVFX, Levofloxacin]

Source: publication PMC9804084, “Multiple drug transporters contribute to the brain transfer of levofloxacin” (CNS Neuroscience & Therapeutics, 2022)
